Bridge positions count the residues as written; N and C are the ends. Ends that are not written are not given here.
Legend:
[1] = tested on: brain; test: Homing of individually amplified phage to brain compared with kidney (TU recovered); assay type: in vivo, mice; conditions: phage displaying the peptide, same input titer, TU recovered from each organ
Procedure: To determine the specificity of brain homing of the individual motifs identified, phage displaying the predominant motifs were amplified individually, diluted to the same input titer and administered to mice. Following administration, brain and kidney were removed and the number of TU of phage in each organ was determined. […] Specifically, the ratio of selective homing (brain:kidney) was about 8 for CNSRLHLRC (SEQ ID NO: 1) and for CLSSRLDAC (SEQ ID NO: 3), 4 for CENWWGDVC (SEQ ID NO: 2) and 9 for […] (SEQ ID NO: 16).

[2] = tested on: kidney; test: Homing of individual phage to kidney compared with brain; assay type: in vivo, mice; conditions: phage expressing the peptide
Procedure: The same methodology used to isolate phage expressing brain homing peptides was used to isolate phage expressing peptides that home to kidney. In these experiments, brain was used as the control organ. A mixture of the CX5C (SEQ ID NO: 36) and the CX6C (SEQ ID NO: 37) libraries was administered as described above. Homing of phage to the kidney was obtained and an approximately 3× to 7× enrichment of phage homing to kidney was observed following a second round of in vivo panning.
The amino acid sequences were determined for the inserts in 48 cloned phage that homed to kidney. The peptides expressed by these phage were represented by two predominant sequences, CLPVASC (SEQ ID NO: 21; 46% of the clones sequenced) and CGAREMC (SEQ ID NO: 22; 17% of the clones; see Table 2). In addition, the peptide CKGRSSAC (SEQ ID NO: 23) appeared three times and three other peptides were present twice each.

[3] = tested on: brain; test: Peptide competition: synthetic cyclic peptide co-injected with brain homing phage; assay type: in vivo, mice; conditions: 100 μg synthetic cyclic peptide co-injected with 1×10^8 TU phage
Procedure: In order to confirm the specificity of a peptide for directing homing to a selected organ, peptide competition experiments were performed. The cyclic peptide, CLSSRLDAC (SEQ ID NO: 3), which is one of the brain homing peptides (see Table 1) was synthesized (Immunodynamics; La Jolla Calif.) and purified by HPLC. The effect on the homing of phage expressing CLSSRLDAC (SEQ ID NO: 3), CENWWGDVC (SEQ ID NO: 2) or […] (SEQ ID NO: 16) to the brain was examined in order to determine whether co-administration of the synthetic peptide affected homing of the phage.
Phage expressing CLSSRLDAC (SEQ ID NO: 3), CENWWGDVC (SEQ ID NO: 2) or […] (SEQ ID NO: 16) were titrated to the same concentration and 1×10^8 TU was injected into mice alone, or with 100 μg purified synthetic cyclic CLSSRLDAC (SEQ ID NO: 3) peptide. The synthetic CLSSRLDAC (SEQ ID NO: 3) peptide inhibited the homing of phage expressing CLSSRLDAC (SEQ ID NO: 3) by about 60%.

[4] = tested on: brain; test: Homing of 125I-peptide/RBC complex to brain and kidney, alone or with unlabeled peptide; assay type: in vivo, mouse; conditions: for effect of coadministered unlabeled peptide on brain homing of the CLSSRLDAC/RBC complex / effect of coadministered unlabeled peptide on localization of the CLSSRLDAC/RBC complex in the kidney: 10 mM unlabeled peptide coadministered
Procedure: The synthetic cyclic CLSSRLDAC (SEQ ID NO: 3) peptide (1 mg) was labeled with iodine-125 using the Bolton and Hunter reagent (Amersham; Arlington Heights Ill.). Labeled peptide was purified by reverse phase HPLC on Sep-Pak™ cartridges (Waters, Millipore Corp.; Milford Pa.) and the ^125I-peptide (200 μg) was coupled to 1 ml glutaraldehyde-stabilized sheep RBC (Sigma Chemical Co.; St. Louis Mo.) according to the manufacturer's instructions.
After 2 min, each mouse was perfused through the heart with 50 ml DMEM and the brain and kidney were removed and assayed for radioactivity.
Approximately twice as much of the CLSSRLDAC/RBC complex (SEQ ID NO: 3) homed to brain than to kidney. […] Coadministration of unlabeled CVRLNSLAC (SEQ ID NO: 43) had no effect on selective homing of the complex to brain and no effect on the non-specific localization of the complex in the kidney.

Substance	ratio of selective homing (brain:kidney) [1]	ratio of selective kidney:brain homing [2]	also measured
CENWWGDVC (displayed on phage)	~4		
CGAREMC (displayed on phage)		3	
CKGRSSAC (displayed on phage)		2	
CLPVASC (displayed on phage)		7	
CLSSRLDAC (disulfide 1-9 (inferred)) [also synthesized as cyclic peptide]	about 8		effect on homing to brain of CENWWGDVC phage [3]: did not affect; inhibition of homing to brain of phage expressing CLSSRLDAC [3]: about 60%; effect of coadministered unlabeled peptide on brain homing of the CLSSRLDAC/RBC complex [4]: essentially completely inhibited; effect of coadministered unlabeled peptide on localization of the CLSSRLDAC/RBC complex in the kidney [4]: had no effect
CNSRLHLRC (displayed on phage)	about 8		
CVRLNSLAC			effect of coadministered unlabeled peptide on brain homing of the CLSSRLDAC/RBC complex [4]: had no effect; effect of coadministered unlabeled peptide on localization of the CLSSRLDAC/RBC complex in the kidney [4]: no effect; brain homing activity ([4]; stated for the control peptide): no brain homing activity
WRCVLREGPAGGCAWFNRHRL (displayed on phage)	~9		

— patent US7018615B2, “Method of identifying molecules that home to a selected organ in vivo” (The Burnham Institute, priority 1995, dated 2006)
